Measurements: paper PMC3174198, “Virtual High-Throughput Screening Identifies Mycophenolic Acid as a Novel RNA Capping Inhibitor” (PLoS ONE, 2011)

Legend:
[1] = target: T1, GTase of S. cerevisiae (Ceg1 protein) (Saccharomyces cerevisiae, UniProt Q01159); assay: Complete RNA guanylyltransferase reaction (both steps), standard GTase assay; type: biochemical
T1 construct: made in house
T1 sequence (Q01159 1-459): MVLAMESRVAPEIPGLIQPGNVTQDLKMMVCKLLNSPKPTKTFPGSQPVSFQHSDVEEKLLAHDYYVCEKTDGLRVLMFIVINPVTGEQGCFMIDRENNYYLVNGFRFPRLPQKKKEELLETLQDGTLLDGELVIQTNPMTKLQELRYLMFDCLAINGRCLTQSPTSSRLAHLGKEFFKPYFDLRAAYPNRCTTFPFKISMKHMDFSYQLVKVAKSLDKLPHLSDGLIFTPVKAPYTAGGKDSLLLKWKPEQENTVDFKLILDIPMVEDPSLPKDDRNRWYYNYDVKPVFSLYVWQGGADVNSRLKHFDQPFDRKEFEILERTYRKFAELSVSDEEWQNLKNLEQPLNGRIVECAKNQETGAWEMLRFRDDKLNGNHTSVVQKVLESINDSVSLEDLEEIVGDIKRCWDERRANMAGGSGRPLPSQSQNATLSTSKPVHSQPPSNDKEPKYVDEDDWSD

[2] = target: T1, GTase of S. cerevisiae (Ceg1 protein); assay: First step of GTase reaction: enzyme-GMP covalent complex formation; type: biochemical
Procedure: The assay was performed by incubating the enzyme (0.1 µM) with 10 µM [α-^32P]GTP in a buffer containing 50 mM Tris-HCl, pH 8, 5 mM DTT, and 5 mM MgCl2 for 5 min at 30°C. […] The reactions were analyzed by electrophoresis through a 12.5% polyacrylamide gel containing 0.1% SDS. The radiolabeled proteins were visualized by autoradiography of the gel.
(§1) Figure 2 Mycophenolic acid inhibits the RNA guanylyltransferase activity. (A) Molecular structure of mycophenolic acid (MPA). (B) Increasing concentrations of MPA inhibit the complete RNA guanylyltransferase reaction. […] The reaction products were analyzed on a denaturing polyacrylamide gel and quantified (right side of the panel). (C) MPA is not a potent inhibitor of the first step of the GTase reaction. […] (D) The second step of the GTase reaction is inhibited by MPA. […] Formation of the radiolabeled capped GpppRNA was monitored following electrophoresis on a denaturant polyacrylamide gel.

[3] = target: T1, GTase of S. cerevisiae (Ceg1 protein); assay: Second step of GTase reaction: transfer of GMP onto acceptor RNA; type: biochemical; settings: enzyme pre-incubated with GTP, then acceptor 5'-diphosphate RNA added with MPA
Procedure: as §1

[4] = target: T2, RNA guanylyltransferase (Saccharomyces cerevisiae, UniProt Q01159); assay: Substrate test: capillary electrophoresis of enzyme adduct and TLC of RNA capping products; type: biochemical, S. cerevisiae; settings: 1 mM MPA
T2 construct: made in house
T2 sequence (Q01159 1-459): T1 sequence (Q01159 1-459)
Text: In the typical GTase reaction, the nucleophilic attack on the α-phosphate of GTP by the enzyme during the first step of the reaction results in the formation of a covalent intermediate in which GMP is linked via a phosphoamide bond to a lysine residue of the enzyme. […] Although MPA is not a nucleoside analog per se, we were still interested to monitor its ability to potentially be used as a substrate by the enzyme. The appearance of a slower migrating protein species is traditionally observed upon electrophoresis through a polyacrylamide gel when an RNA capping enzyme is incubated with GTP [25]. This slower migrating species corresponds to the enzyme with covalently bound GMP. We therefore incubated the enzyme in the presence of GTP or MPA and the polypeptide was analyzed by capillary electrophoresis. […] Aliquots of the RNA samples were then digested with nuclease P1 and alkaline phosphatase and analyzed by polyethyleneimine-cellulose thin layer chromatography (Fig. 3B).
(A) Capillary electrophoresis analysis of the RNA capping reaction. The GTase reactions were performed in the presence of the purified enzyme (1 µM) and GTP (1 mM) or MPA (1 mM), and the reaction products were analyzed by capillary electrophoresis. […] The reaction products were analyzed by thin layer chromatography on a polyethyleneimine-cellulose plate developed with 0.5 M LiCl and 1 M formic acid. […]

[5] = target: T3, yeast GTase enzyme-GMP complex (Saccharomyces cerevisiae, UniProt Q01159); assay: UV-crosslinking of radiolabelled RNA to the enzyme-GMP complex; design: species or system S. cerevisiae; settings: 81 nt 5'-triphosphate radiolabelled RNA (3 µM), read-out: IC50 for inhibition of RNA binding to the enzyme-GMP complex
T3 construct: made in house
Procedure: UV-crosslinking between the internally ^32P-labeled RNA of 81 nt and the yeast GTase was performed in a crosslink buffer (50 mM Tris pH 7.5, 5 mM DTT, 5 mM MgCl2). The protein (12 µM) was incubated with GTP (1 mM) and different concentrations of MPA for 10 minutes at 30°C. The radiolabeled RNA (3 µM) was added to the reaction mixture and incubated for 5 minutes at 30°C. The reaction mixture was exposed to UV light (254 nm, 20 Joules/cm^2) for 5 min at 30°C using a Stratalinker 2400 UV Crosslinker (Stratagene). The crosslink mixture was denatured (50 mM Tris-HCl, pH 7.0, 5% sucrose, 5% b-mercaptoethanol, 2% SDS) and separated by electrophoresis on a 12% SDS-PAGE. The gel was analyzed by phosphorimaging.
It is tempting to speculate that the opening of the active site of the enzyme that is normally observed following the hydrolysis of GTP to produce the enzyme-GMP covalent intermediate is inhibited by MPA. Following the formation of the GMP adduct, the enzyme must open up to provide access for the incoming mRNA substrate, since this site is blocked off in the closed form of the enzyme. […] In order to validate this hypothesis, cross-linking assays were used to monitor the binding of radiolabelled RNA to the enzyme-GMP complex with or without MPA. […]
Figure 5 Binding of MPA to the enzyme-GMP complex inhibits the interaction with RNA. […] (B) The reaction products were quantified by phosphorimaging.

[6] = target: T4, RNA guanylyltransferase from vaccinia virus (D1R) (Vaccinia virus, UniProt P04298); assay: biochemical
T4 construct: made in house

[7] = target: T5, RNA guanylyltransferase from Chlorella virus (A103R) (Paramecium bursaria Chlorella virus 1, UniProt Q84424); assay: First and second step of the GTase reaction, Chlorella enzyme; type: biochemical
T5 construct: made in house

[8] = target: T6, human RNA guanylyltransferase (HCE) (Homo sapiens, UniProt O60942); assay: First and second step of the GTase reaction, human enzyme; type: biochemical; settings: enzyme-GMP formation
T6 construct: made in house

[9] = target: T7, Chlorella virus DNA ligase (Paramecium bursaria Chlorella virus 1, UniProt O41026); assay: First step of ligation: enzyme-AMP covalent complex formation; type: biochemical
Text: (§2) An autoradiogram of the gel is shown.

[10] = target: T7, Chlorella virus DNA ligase; assay: Second step of ligation: AMP transfer to 5'-phosphate DNA (1-nt gapped substrate); type: biochemical; settings: enzyme pre-incubated with ATP; 1-nt gapped DNA substrate
Text: as §2

[11] = test system: S. cerevisiae cells; assay: Primer extension analysis of SSA1 mRNA 5' ends (RNA cap formation in cells); type: cell-based; settings: 500 µg/ml MPA for 3 h
[12] = target: T7, Chlorella virus DNA ligase; assay: Ligation assay: strand joining of nicked DNA duplex (complete reaction)

T7 sequence (O41026 entry or part of it): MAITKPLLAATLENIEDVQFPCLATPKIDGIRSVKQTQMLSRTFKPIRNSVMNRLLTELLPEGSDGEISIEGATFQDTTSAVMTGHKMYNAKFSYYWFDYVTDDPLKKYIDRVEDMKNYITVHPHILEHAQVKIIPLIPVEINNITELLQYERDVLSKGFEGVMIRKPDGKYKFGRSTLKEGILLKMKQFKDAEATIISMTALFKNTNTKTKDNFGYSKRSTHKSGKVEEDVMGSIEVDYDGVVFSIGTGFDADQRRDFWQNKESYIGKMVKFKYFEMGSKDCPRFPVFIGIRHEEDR
T6 sequence (O60942 whole entry): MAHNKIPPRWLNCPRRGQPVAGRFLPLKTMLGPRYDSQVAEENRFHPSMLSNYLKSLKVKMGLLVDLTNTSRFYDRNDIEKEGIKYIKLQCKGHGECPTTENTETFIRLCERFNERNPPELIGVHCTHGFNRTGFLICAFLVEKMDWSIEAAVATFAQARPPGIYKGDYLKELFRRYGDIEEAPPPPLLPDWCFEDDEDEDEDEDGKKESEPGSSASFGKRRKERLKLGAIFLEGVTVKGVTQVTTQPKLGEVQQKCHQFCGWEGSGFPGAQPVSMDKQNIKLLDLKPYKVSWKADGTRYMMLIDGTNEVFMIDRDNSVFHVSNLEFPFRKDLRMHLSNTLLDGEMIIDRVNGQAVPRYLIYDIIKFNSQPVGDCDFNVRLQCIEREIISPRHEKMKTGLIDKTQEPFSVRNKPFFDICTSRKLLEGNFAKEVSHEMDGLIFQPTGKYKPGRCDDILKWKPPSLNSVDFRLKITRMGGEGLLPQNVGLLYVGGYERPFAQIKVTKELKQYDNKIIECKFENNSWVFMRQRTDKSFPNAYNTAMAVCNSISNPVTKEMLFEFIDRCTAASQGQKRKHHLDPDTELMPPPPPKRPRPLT
T5 sequence (Q84424 whole entry, stated change not applied): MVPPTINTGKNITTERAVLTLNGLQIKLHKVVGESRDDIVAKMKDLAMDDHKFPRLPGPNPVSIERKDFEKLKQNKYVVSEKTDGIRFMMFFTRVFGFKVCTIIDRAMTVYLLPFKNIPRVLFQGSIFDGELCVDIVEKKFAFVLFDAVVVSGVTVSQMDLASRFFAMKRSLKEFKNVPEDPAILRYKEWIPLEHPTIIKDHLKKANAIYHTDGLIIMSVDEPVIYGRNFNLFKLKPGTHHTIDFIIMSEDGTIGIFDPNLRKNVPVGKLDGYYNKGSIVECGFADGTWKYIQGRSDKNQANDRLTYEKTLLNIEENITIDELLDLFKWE

COc1c(C)c2c(c(O)c1C/C=C(\C)CCC(=O)O)C(=O)OC2 [MPA, mycophenolic acid]
IC50 [1]: 360 µM
inhibition at 900 µM ([1]; at 900 µM MPA, both steps, read-out: inhibition of the overall GTase activity): 80%
IC50 [2]: 3000 µM
concentration for first step relative to amount required to inhibit the overall GTase reaction ([2]; first step IC50 / overall (both steps) IC50): 8 times
IC50 [3]: 640 µM
use as substrate by the GTase (slower migrating covalent enzyme species) ([4]; capillary electrophoresis): not a substrate
transfer to an acceptor RNA ([4]; nuclease P1 + alkaline phosphatase digestion, TLC): could not be detected
IC50 [5]: 410 µM
IC50 [6]: ~3000 µM
IC50 [7]: ~3000 µM
IC50 [8]: ~3000 µM
IC50 ([9]; enzyme-AMP covalent complex formation): ~3000 µM
concentration for first step relative to amount required to inhibit the overall reaction ([9]; first step IC50 / overall ligation IC50): 4 times
IC50 [10]: 600 µM
reduction of cap formation [11]: 50%
IC50 [12]: 700 µM
